{
  "source": "paper PMC10619133",
  "about": "“The catechol moiety of obafluorin is essential for antibacterial activity” (RSC Chemical Biology, 2023)",
  "key": {"[1]": {"system": "S. cerevisiae", "assay": "Spot-on-lawn MIC bioassay", "assay_type": "cell-based, S. cerevisiae NCYC 2939", "conditions": "Saccharomyces cerevisiae", "protocol": "(§1) Indicator strains were grown for 16–18 h in LB (5 mL) by inoculation from a single colony. An aliquot of the resulting culture (500 μL) was then used to inoculate LB (50 mL in 250 mL Erlenmeyer flasks), followed by orbital shaking at 250 rpm until they reached an OD600 of 0.3–0.4. These cultures were then diluted 1 : 10 with molten soft nutrient agar (SNA), before pouring into appropriately sized Petri dishes to set. Serial dilutions of the test compounds (from 256 μg mL^−1 to 1 μg mL^−1 plus an additional sample at 1000 μg mL^−1) were prepared in acetonitrile (ACN), and 4 μL of each sample was applied directly onto the SNA surface. Kanamycin (50 μg mL^−1), apramycin (50 μg mL^−1) or aureobasidin A (0.2 μg mL^−1) were used as positive controls, as appropriate, and ACN or water (4 μL) were used as negative controls. […] Experiments were carried out in at least triplicate for each strain."}, "[2]": {"system": "E. coli BW25113 Δ6", "assay": "Spot-on-lawn MIC bioassay, TBDT knock-out mutant", "assay_type": "cell-based", "conditions": "for MIC: Escherichia coli", "protocol": "as §1\n(§2) The method was the same as for the antibacterial MIC assays described above, with the following modifications: for excess iron, Fe(NO3)3·9H2O stock (400 mM) was added to give a final concentration of 1.5 or 2.0 mM; for iron depletion, bipy stock (1 M) was added to give a final concentration of 150 μM. For MRSA, 1 was further diluted to 0.5 0.25 and 0.125 μg mL^−1 due to a decrease in MIC under excess iron conditions. The general effect of excess iron on the activity of alternative antibiotics was determined by performing a similar serial dilution of carbenicillin, kanamycin, streptomycin, nitrofurantoin and chloramphenicol in the presence of Fe^3+."}, "[3]": {"system": "E. coli BW25113 Δ3", "assay": "Spot-on-lawn MIC bioassay, TBDT knock-out mutant", "assay_type": "cell-based", "conditions": "for MIC: Escherichia coli", "protocol": "as §1, §2"}, "[4]": {"system": "MRSA", "assay": "Spot-on-lawn MIC bioassay", "assay_type": "cell-based, Methicillin-resistant Staphylococcus aureus", "conditions": "for MIC: Staphylococcus aureus, MRSA, read-out: MIC", "protocol": "as §1, §2"}, "[5]": {"system": "P. aeruginosa PA01", "assay": "Spot-on-lawn MIC bioassay", "assay_type": "cell-based", "conditions": "for MIC: Pseudomonas aeruginosa", "protocol": "as §1, §2"}, "[6]": {"system": "E. coli BW25113", "assay": "Spot-on-lawn MIC bioassay", "assay_type": "cell-based", "conditions": "for MIC: Escherichia coli", "protocol": "as §1, §2"}, "[7]": {"system": "E. coli 25922", "assay": "Spot-on-lawn MIC bioassay", "assay_type": "cell-based, E. coli ATCC 25922", "protocol": "as §1, §2"}, "[8]": {"system": "ObaO", "assay": "Aminoacylation assay", "assay_type": "biochemical, P. fluorescens", "protocol": "(§3) To measure the effects of 1–4 on ThrRS canonical tRNA charging activity, an assay modified from that reported by Ruan et al.[53] was used, where active enzyme was incubated with its necessary substrates and its activity measured using ^14C labeled Thr and a liquid scintillation counter. Purified ThrRS protein (10 nM) was pre-incubated with varying concentrations of compounds 1–4 or ACN for 10 min. After pre-incubation, ThrRS samples were added to a master reaction mixture with the final component concentrations of HEPES (100 mM, pH 7.0), ATP (4 mM), MgCl2 (10 mM), L-[U-^14C]threonine (50 μM, Moravek Inc.), and tRNA^Thr (5 μM). This mixture was incubated at room temperature for 10 min, with samples taken at 1, 2.5, 5, and 10 min. At each time point, a 7 μL aliquot was spotted onto a 5% trichloroacetic acid (TCA) presoaked 3 MM Whatman paper (Cytiva) squares (repeated in triplicate). After allowing the spots to dry, the Whatman paper was washed three times with 5% TCA, and once with 95% EtOH. The Whatman paper was dried and the counts on each square of paper analyzed using a Tri-Carb 2910 TR liquid scintillation counter using Hydrofluor Liquid Scintillation Fluid (National Diagnostics). To calculate IC50 values, fractional initial velocities (velocity of inhibited reaction/velocity in the absence of inhibitor) were plotted against the log of 1 concentration and then fitted to eqn (1), using GraphPad Prism.1 [drawing 1]"}, "[9]": {"target": "PfThrRS (Pseudomonas fluorescens, UniProt C3JZN7)", "sequence (C3JZN7 whole entry)": "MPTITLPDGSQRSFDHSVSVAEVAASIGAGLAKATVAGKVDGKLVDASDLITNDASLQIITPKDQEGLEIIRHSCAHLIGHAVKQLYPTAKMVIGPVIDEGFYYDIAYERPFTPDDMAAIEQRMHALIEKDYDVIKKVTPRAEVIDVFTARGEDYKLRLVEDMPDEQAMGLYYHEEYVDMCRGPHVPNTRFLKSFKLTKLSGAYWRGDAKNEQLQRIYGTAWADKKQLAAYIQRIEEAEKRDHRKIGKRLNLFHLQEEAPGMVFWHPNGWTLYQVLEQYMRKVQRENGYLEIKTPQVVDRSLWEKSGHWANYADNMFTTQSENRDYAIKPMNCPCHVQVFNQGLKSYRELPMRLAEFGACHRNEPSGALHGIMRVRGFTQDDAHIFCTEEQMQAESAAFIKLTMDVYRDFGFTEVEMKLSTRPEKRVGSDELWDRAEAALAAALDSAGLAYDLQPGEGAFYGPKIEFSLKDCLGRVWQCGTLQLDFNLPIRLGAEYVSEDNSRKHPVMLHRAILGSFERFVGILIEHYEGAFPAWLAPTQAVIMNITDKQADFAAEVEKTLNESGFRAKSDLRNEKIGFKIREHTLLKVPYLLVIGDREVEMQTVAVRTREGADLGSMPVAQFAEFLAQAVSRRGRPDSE", "assay": "Aminoacylation assay", "assay_type": "biochemical, P. fluorescens", "conditions": "enzyme 10 nM; read-out: concentration of full inhibition", "protocol": "as §3"}, "[10]": {"system": "B. subtilis", "assay": "Spot-on-lawn MIC bioassay", "assay_type": "cell-based, B. subtilis EC 1524", "conditions": "Bacillus subtilis, standard conditions, read-out: MIC", "protocol": "as §1"}, "[11]": {"system": "E. coli NR698", "assay": "Spot-on-lawn MIC bioassay", "assay_type": "cell-based", "conditions": "Escherichia coli, NR698", "protocol": "as §1"}, "[12]": {"target": "T1, EcThrRS (Escherichia coli, UniProt P0A8M3)", "T1 construct": "His6 (N); made in house; host or cells: E. coli NiCo21(DE3)", "T1 sequence (P0A8M3 whole entry)": "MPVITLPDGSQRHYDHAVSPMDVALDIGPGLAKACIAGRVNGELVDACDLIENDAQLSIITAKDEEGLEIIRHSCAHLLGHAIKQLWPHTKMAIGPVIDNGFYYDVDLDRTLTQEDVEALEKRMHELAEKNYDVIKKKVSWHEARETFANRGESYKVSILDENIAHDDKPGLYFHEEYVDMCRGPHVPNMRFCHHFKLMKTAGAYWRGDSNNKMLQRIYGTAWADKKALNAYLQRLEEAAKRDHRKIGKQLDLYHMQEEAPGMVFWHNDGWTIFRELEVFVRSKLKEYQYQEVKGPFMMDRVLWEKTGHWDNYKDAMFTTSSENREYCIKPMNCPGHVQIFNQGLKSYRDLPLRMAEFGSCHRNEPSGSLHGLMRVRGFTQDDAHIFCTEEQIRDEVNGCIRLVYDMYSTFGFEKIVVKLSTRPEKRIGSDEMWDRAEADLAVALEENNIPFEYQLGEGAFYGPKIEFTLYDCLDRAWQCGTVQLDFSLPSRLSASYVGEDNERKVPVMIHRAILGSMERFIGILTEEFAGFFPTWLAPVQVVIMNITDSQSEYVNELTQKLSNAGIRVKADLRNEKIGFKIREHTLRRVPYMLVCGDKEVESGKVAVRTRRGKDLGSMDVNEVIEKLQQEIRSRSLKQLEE", "assay": "Aminoacylation assay", "assay_type": "biochemical, E. coli", "conditions": "enzyme 10 nM", "protocol": "as §3"}, "[13]": {"system": "Streptococcus pyogenes", "design": "method as in doi:10.1021/jo00350a010", "conditions": "dosed systemically; cited from earlier work"}, "[14]": {"conditions": "BW25113, iron replete, +Fe^3+ (2 mM)"}, "[15]": {"conditions": "BW25113, iron depleted, +bipy (150 μM)"}, "[16]": {"conditions": "with vs without Fe^3+ in growth agar"}},
  "note": "Entries after “also recorded” stand apart in the source; their conditions may differ. Like-named read-outs stand apart in the source and are kept apart here.",
  "data": [
    {"smiles": "O=C(N[C@@H]1C(=O)O[C@@H]1Cc1ccc([N+](=O)[O-])cc1)c1cccc(O)c1O", "note": "[compound 1, Obafluorin]", "values": [
      {"measurement": "MIC", "setting": "[1]; Figure S12 legend, read-out: Minimum inhibitory concentration", "result": 1000, "unit": "µg/mL"},
      {"measurement": "MIC", "setting": "[1]; standard conditions, read-out: MIC", "result": 1000, "unit": "µg/mL"},
      {"measurement": "MIC", "setting": "[2]; [14]", "result": "≤ 1", "unit": "µg/mL"},
      {"measurement": "MIC", "setting": "[2]; BW25113, standard conditions", "result": 256, "unit": "µg/mL"},
      {"measurement": "decrease in MIC upon addition of Fe^3+", "setting": "[2]; with vs without Fe^3+", "result": "≥ 256", "unit": "fold"},
      {"measurement": "MIC", "setting": "[3]; [15]", "result": 256, "unit": "µg/mL"},
      {"measurement": "MIC", "setting": "[3]; [14]", "result": "≤ 1", "unit": "µg/mL"},
      {"measurement": "MIC", "setting": "[3]; BW25113, standard conditions", "result": 256, "unit": "µg/mL"},
      {"measurement": "decrease in MIC upon addition of Fe^3+", "setting": "[3]; with vs without Fe^3+", "result": "≥ 256", "unit": "fold"},
      {"measurement": "MIC", "setting": "[4]; +Fe^3+ (2 mM) in the media", "result": 0.25, "unit": "µg/mL"},
      {"measurement": "MIC", "setting": "[4]; spot-on-lawn, standard conditions", "result": 2, "unit": "µg/mL"},
      {"measurement": "decrease in MIC with added Fe^3+", "setting": "[4]; [16]", "result": 8, "unit": "fold"},
      {"measurement": "MIC", "setting": "[5]; PA01, +Fe^3+ (1.5 mM) in the media", "result": "≤ 1", "unit": "µg/mL"},
      {"measurement": "MIC", "setting": "[5]; PA01, spot-on-lawn, standard conditions", "result": 128, "unit": "µg/mL"},
      {"measurement": "decrease in MIC with added Fe^3+", "setting": "[5]; [16]", "result": "≥ 128", "unit": "fold"},
      {"measurement": "MIC", "setting": "[6]; [15]", "result": 256, "unit": "µg/mL"},
      {"measurement": "MIC", "setting": "[6]; BW25113, iron replete, +Fe^3+ (2 mM), read-out: MIC", "result": "≤ 1", "unit": "µg/mL"},
      {"measurement": "MIC", "setting": "[6]; BW25113, standard conditions", "result": 256, "unit": "µg/mL"},
      {"measurement": "decrease in MIC upon addition of Fe^3+", "setting": "[6]; with vs without Fe^3+", "result": "≥ 256", "unit": "fold"},
      {"measurement": "MIC", "setting": "[7]; Escherichia coli, 25922, iron depleted, +bipy (150 μM)", "result": 256, "unit": "µg/mL"},
      {"measurement": "MIC", "setting": "[7]; Escherichia coli, 25922, +Fe^3+ (2 mM) in the media, read-out: MIC", "result": "≤ 1", "unit": "µg/mL"},
      {"measurement": "MIC", "setting": "[7]; Escherichia coli, 25922, spot-on-lawn, standard conditions", "result": 256, "unit": "µg/mL"},
      {"measurement": "decrease in MIC with added Fe^3+", "setting": "[7]; [16]", "result": "≥ 256", "unit": "fold"},
      {"measurement": "inhibition of aminoacylation (in words)", "setting": "[8]; 0–5 μM (up to 5000 nM)", "result": "no observable inhibition; also recorded: no significant inhibition"},
      {"measurement": "IC50", "setting": "[8]; enzyme 10 nM, 10 min preincubation, 0–5 μM compound", "result": "not inhibited; also recorded: No inhibition"},
      {"measurement": "IC100", "setting": "[9]", "result": 0.01, "unit": "µM"},
      {"measurement": "MIC", "setting": "[10]", "result": 4, "unit": "µg/mL"},
      {"measurement": "MIC", "setting": "[11]", "result": 4, "unit": "µg/mL"},
      {"measurement": "concentration at which complete inhibition was observed", "setting": "[12]", "result": "around 100 nM"},
      {"measurement": "IC50", "setting": "[12]; 10 min preincubation with compound, read-out: IC50", "result": "35 ± 4", "unit": "nM"},
      {"measurement": "protection of infected mice (in words)", "setting": "[13]", "result": "can protect mice"},
      {"measurement": "toxicity in mice (in words)", "setting": "[13]", "result": "no observable toxicity"}
    ]}
  ]
}
